Assay results as given in US11613552B2, “Pharmaceutical agents, compositions, and methods relating thereto” (Alltech, Inc., priority 2017, dated 2023).

Columns and labels:
G6pc [1] = assay: QRT-PCR of basal G6pc expression in AML-12 cells; type: cell-based, mouse
Description: (§1) For RNA analysis of basal G6pc expression (without the presence of diabetic stimuli: 8-CPT/Dex), amplified AML-12 and HepG2 cells were cultured on 24-well plates (0.5-2×10^5 cells/well) overnight in 10% FBS ITS- and Dex-free DMEM/F12 media and 10% FBS EMEM media, respectively. These cells were rinsed twice with PBS to remove residual sera. Then, the PBS-washed HepG2 cells were treated without or with insulin or Compound #43 in serum-free EMEM media for 40 hr. In some experiments, the PBS-washed AML-12 cells were incubated without or with Compound #43 or other selenium compounds in serum-free DMEM/F12 media for 24 hours. In other experiments, amplified AML-12 cells were pretreated without or with Compound #43 (150 or 300 ppb) in 10% FBS but ITS/Dex-free DMEM/F12 media for 24 hr. After 24 hr treatment, AML-12 cells were washed twice with PBS (to remove any residual serum in the culture) and then treated with insulin, Compound #43 or both, in the serum-free DMEM/Dex media for 6 hr.
Total RNA from saline- or selenium compound-treated Lepr^db/db mice was isolated using a Qiagen RNAeasy RNA isolation kit according to the Manufacturer's protocol. Total RNA from cultured cells was isolated using Trizol (Invitrogen) according to the manufacturer's protocol, and then incubated with DNase I to remove any potential contaminating genomic DNA. RNA samples were subjected to real-time PCR (QRT-PCR) analysis using Applied-Bioscience's RT kit and predesigned Taqman probes (Invitrogen), as described previously (Lan et al EMBO J 2003). Data were normalized by Actin B (Actb) mRNA levels in each sample, and are presented as mean±SEM of 3-5 samples.

G6PC [2] = assay: QRT-PCR of G6PC expression in HepG2 cells; type: cell-based, human; conditions: 100 nM insulin or 600 ppb Compound #43, serum-free, 40 hr (FIG. 10B)
Description: as §1
Total RNA from saline- or selenium compound-treated Lepr^db/db mice was isolated using a Qiagen RNAeasy RNA isolation kit according to the Manufacturer's protocol. Total RNA from cultured cells was isolated using Trizol (Invitrogen) according to the manufacturer's protocol, and then incubated with DNase I to remove any potential contaminating genomic DNA. […]

Pdk1/Akt/Foxo1 = assay: Western blot of Pdk1/Akt/Foxo1 in AML-12 cells under simulated diabetic conditions (8-CPT/Dex); type: cell-based, mouse; conditions: for pFoxo1 levels / total Foxo1 protein levels: 300 ppb Compound #43 or 10 nM insulin, 6 hr
Description: AML-12 cells were used to investigate whether Compound #43 can regulate Pdk1/Akt/Foxo1 signaling molecules in the liver cells following induction with diabetic stimuli. Amplified AML-12 cells were seeded on 6-well (1×10^6 cells/well) plates and cultured in 10% FBS but ITS/Dex-free DMEM/F12 media for 24 hr. Then these cells were washed twice with PBS to remove residual sera, and serum-starved in plain DMEM/F12 media overnight. These serum-starved AML12 cells were treated with the diabetic stimuli 8-CPT (0.1 mM) and Dex (0.5 μM) in combination, without (Control group) or with 10 nM insulin or Compound #43 (300 ppb) in serum-free plain DMEM/F12 media for 60 minutes, 90 minutes, and 6 hr, respectively.
After the above described treatments, cultured HepG2 and AML-12 cells were rinsed twice with ice-cold PBS and lysed in ice-cold RIPA buffer containing complete proteinase and phosphatase inhibitors (Thermo-Fisher Scientific, Waltham, Mass.) on ice for 30 min. Cell lysates were collected using a cell scraper and transfer pipette, and then centrifuged at 12000×g for 30 min at 4° C. to remove the DNA pellet and obtain the protein extract. Protein levels in the supernatant of these cell lysates were determined using the Pierce Micro-BCA protein assay kit (Thermo Scientific-Piece Biotechnology, Rockford, Ill.) according to the manufacturer's protocol.
One hundred micrograms of liver tissue proteins or five micrograms of total proteins from control- and compound(s)-treated HepG2 or AML-12 cells were subjected to SDS-PAGE gel separation and then transferred to PVDF membranes, as described previously (Reddy et al. 2008 Science). Membranes were blocked in a phosphate-buffered saline (PBS) containing 5% (w/v) of bovine serum albumin (Sigma, St. Louis, Mo.) and incubated with specific primary antibodies followed by the incubation with HRP-conjugated anti-mouse or anti-rabbit secondary antibodies (1:5000 dilution, Cell Signaling Inc.). All primary antibodies except Gapdh (Li-COR, Lincoln, Nebr.) were purchased from Cell Signaling Inc. Positive signals on the membrane blots were detected using the Amersham's enhanced chemiluminescence Western Blotting Prime Detection reagents (GE Healthcare Lifescience, Pittsburgh, Pa.). Images of these luminescence signals on the membrane blots were captured using the LI-COR Odyssey Fc Image system (Lincoln, Nebr.). The same membrane blot was stripped and re-blotted with another antibody as described in the GE WB ECL-prime-detection protocol (GE healthcare Lifescience, Pittsburgh, Pa.). Protein band densities in the Western blots were determined using the NIH ImageJ software and then normalized by Gapdh or Actb/ACTB level in each sample. Data are presented as mean±SEM of three samples per each group.

[3] = target: T1, native insulin receptor (Insr) (Rattus norvegicus, UniProt P15127); assay: In vitro cell-free phosphorylation of native insulin receptor; type: biochemical
T1 construct: native insulin receptor proteins, containing both alpha and beta subunits; purchased Sigma I9266; host or cells: purified from rat liver tissue
T1 sequence (P15127 764-1383 limits assumed): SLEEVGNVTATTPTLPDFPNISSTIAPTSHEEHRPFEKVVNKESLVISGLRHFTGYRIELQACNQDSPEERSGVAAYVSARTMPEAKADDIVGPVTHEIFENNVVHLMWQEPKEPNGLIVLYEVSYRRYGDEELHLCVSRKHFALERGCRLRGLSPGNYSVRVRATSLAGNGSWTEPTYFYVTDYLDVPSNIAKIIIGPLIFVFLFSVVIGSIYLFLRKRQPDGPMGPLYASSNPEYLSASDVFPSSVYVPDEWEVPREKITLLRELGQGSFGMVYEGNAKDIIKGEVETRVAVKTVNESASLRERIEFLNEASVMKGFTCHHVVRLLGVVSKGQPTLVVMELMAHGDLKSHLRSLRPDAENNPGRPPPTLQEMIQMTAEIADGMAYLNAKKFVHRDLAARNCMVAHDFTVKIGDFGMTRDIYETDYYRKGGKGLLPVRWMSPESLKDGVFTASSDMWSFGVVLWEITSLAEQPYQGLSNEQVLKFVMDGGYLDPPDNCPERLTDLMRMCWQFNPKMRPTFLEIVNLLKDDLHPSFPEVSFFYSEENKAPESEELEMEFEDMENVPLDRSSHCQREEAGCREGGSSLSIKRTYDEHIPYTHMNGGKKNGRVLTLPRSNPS
T1 sequence (P15127 27-759 partner limits assumed): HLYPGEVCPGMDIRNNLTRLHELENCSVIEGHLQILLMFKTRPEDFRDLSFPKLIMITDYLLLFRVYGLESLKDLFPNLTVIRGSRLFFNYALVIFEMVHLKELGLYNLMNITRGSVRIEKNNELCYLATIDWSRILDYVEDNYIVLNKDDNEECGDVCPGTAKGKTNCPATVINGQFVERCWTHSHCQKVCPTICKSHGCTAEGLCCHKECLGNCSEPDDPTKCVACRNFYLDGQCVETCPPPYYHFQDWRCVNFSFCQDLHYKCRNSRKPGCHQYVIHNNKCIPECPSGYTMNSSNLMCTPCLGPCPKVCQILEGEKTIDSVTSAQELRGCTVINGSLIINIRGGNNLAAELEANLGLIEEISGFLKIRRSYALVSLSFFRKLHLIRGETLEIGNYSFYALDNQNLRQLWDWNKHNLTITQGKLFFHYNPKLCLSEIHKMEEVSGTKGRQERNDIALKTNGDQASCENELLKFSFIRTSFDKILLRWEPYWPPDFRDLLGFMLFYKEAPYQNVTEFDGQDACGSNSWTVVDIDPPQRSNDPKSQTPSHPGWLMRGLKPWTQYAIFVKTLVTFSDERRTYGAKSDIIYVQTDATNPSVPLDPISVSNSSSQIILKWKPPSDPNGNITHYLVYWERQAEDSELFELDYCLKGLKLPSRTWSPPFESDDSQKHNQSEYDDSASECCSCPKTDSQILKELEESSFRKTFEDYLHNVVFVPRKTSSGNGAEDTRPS
Description: In vitro phosphorylation of Insr was performed according to Sigma's protocol with the following modifications. In brief, 10 μl of native insulin receptor solution containing 0.8 μl of original native INSR stock solution (Sigma, Catalog #I9266; diluted in enzyme dilution buffer containing 50 mM HEPES, pH 7.6, 150 mM NaCl and 0.1% Triton X-100) were incubated with equal volume of solutions containing insulin (Sigma), DMSO (Compound #43 solvent), Compound #43 or Compound #68 (diluted in 50 mM HEPES, pH 7.6 and 100 μg/ml bovine serum albumin) on ice for 30 min. Then 20 μl of 2× kinase buffer containing 0.2 mM ATP, 50 mM HEPES, pH 7.6, 50 mM MgCl2 and 4 mM MnCl2 were added to the above reactions, mixed and incubated on ice for 45 minutes.
Five microliters of the above reactions were immediately subjected to Western blot analysis using specific antibodies against phosphorylated tyrosine residues at 1146, 1150 and 1151 of Insrβ proteins (Cell Signaling Inc.). Protein band density was determined using the NIH Image J software.

Molecule: insulin: insulin purchased from Sigma, positive control
- decrease of G6pc mRNA levels vs Control (G6pc [1]; 10 nM insulin, serum-free, 6 hr (FIG. 10C)): about 65%
- effect on G6PC expression (G6PC [2]): significant decrease of G6PC expression
- phosphorylation of Pdk1, Akt and Foxo1 (Pdk1/Akt/Foxo1; 10 nM insulin, 60 and 90 minutes): enhanced the phosphorylation of Pdk1, Akt and Foxo1
- pFoxo1 levels (Pdk1/Akt/Foxo1): increased pFoxo1
- total Foxo1 protein levels (Pdk1/Akt/Foxo1): slightly decreased total Foxo1 protein levels
- phosphorylation of Insrβ at Y1146/1150/1151 ([3]; insulin 0.5 μM, cell-free (FIG. 26)): able to induce the phosphorylation of Insrβ at Y1146/1150/1151

Molecule: C[Se]C[C@H]1O[C@@H](n2cnc3c(N)ncnc32)C(OC(C)=O)C1OC(C)=O (stereo partly shown) [Compound #43, Adenosine, 5′-Se-methyl-5′-selino-, 2′,3′-diacetate]
- effect on G6pc expression (G6pc [1]; 150 and 300 ppb, 24 hr pretreatment then 6 hr retreatment (FIG. 10C)): significant decrease of G6pc expression with the decrease levels comparable to 10 nM insulin
- decrease of G6pc expression vs Control (G6pc [1]; 300 ppb selenium (3.8 μM of each compound), serum-free, 24 hr (FIG. 10A)): ~60%
- decrease in G6pc mRNA levels vs either agent alone (G6pc [1]; pretreatment then co-treatment with 10 nM insulin, 6 hr (FIG. 10C)): more pronounced
- effect on G6PC expression (G6PC [2]): significantly attenuated
- pFoxo1 levels (Pdk1/Akt/Foxo1): significant increase in pFoxo1 levels
- total Foxo1 protein levels (Pdk1/Akt/Foxo1): slight but significant decrease
- phosphorylation of Pdk1, Akt and Foxo1 (Pdk1/Akt/Foxo1; 300 ppb, 60 minutes): significantly induced the phosphorylation of Pdk1, Akt and Foxo1
- pFoxo1 protein levels (Pdk1/Akt/Foxo1; 300 ppb, 90 minutes): significant increase in pFoxo1 protein levels
- pPdk1, pAkt, Akt and Foxo1 protein levels (Pdk1/Akt/Foxo1; 300 ppb, 90 minutes): not significantly altered
- phosphorylation of Insrβ at Y1146/1150/1151 ([3]; doses of 1.9 and 3.8, cell-free (FIG. 26)): significantly enhance the phosphorylation of Insrβ at Y1146/1150/1151
